Experimental data as given in PubChem BioAssay (NCI).
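Step 1: Grow cells in 96-well plates. Step 2: Expose to compound for 48 hours at 5 concentrations. Step 3: Interpolate endpoints linearly; if unreached, use highest concentration. GI50: concentration for 50% inhibition of growth. Definition used: TGI = concentration required for complete inhibition of growth.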

How the values were obtained:
Assay in all cases: inhibition of tumour cell growth, NCI panel, 48 h
U251 CNS = system: U251 CNS
HCC-2998 colon = system: HCC-2998 colon
ACHN renal = system: ACHN renal
NCI-H460 lung = system: NCI-H460 lung
UACC-257 melanoma = system: UACC-257 melanoma
HCT-116 colon = system: HCT-116 colon
SN12C renal = system: SN12C renal
SK-MEL-2 melanoma = system: SK-MEL-2 melanoma
NCI-H226 lung = system: NCI-H226 lung
SF-295 CNS = system: SF-295 CNS

Row | SMILES | GI50 (U251 CNS) [µM] | TGI (U251 CNS) [µM] | GI50 (HCC-2998 colon) [µM] | TGI (HCC-2998 colon) [µM] | GI50 (ACHN renal) [µM] | TGI (ACHN renal) [µM] | GI50 (NCI-H460 lung) [µM] | TGI (NCI-H460 lung) [µM] | GI50 (UACC-257 melanoma) [µM] | TGI (UACC-257 melanoma) [µM] | GI50 (HCT-116 colon) [µM] | TGI (HCT-116 colon) [µM] | GI50 (SN12C renal) [µM] | TGI (SN12C renal) [µM] | GI50 (SK-MEL-2 melanoma) [µM] | TGI (SK-MEL-2 melanoma) [µM] | GI50 (NCI-H226 lung) [µM] | TGI (NCI-H226 lung) [µM] | GI50 (SF-295 CNS) [µM] | TGI (SF-295 CNS) [µM]
1 | C=C1C(=O)O[C@H]2[C@H]1CC/C(COC(=O)/C=C\C(=O)NCc1ccc(Cn3c(=O)sn(-c4ccc(OC)cc4)c3=O)cc1)=C\CC[C@@]1(C)O[C@@H]21 | 0.834 | 2.19 | 0.881 | 1.67 | 0.46 | 1.07 | 0.804 | 1.81 | 0.85 | 1.86 | 0.171 | 0.755 | 0.636 | 1.46 | 0.882 | 1.94 | 1.28 | 5.51 | 3.84 | 10.1
2 | O=C1Nc2ccccc2C1(c1ccc(O)c(F)c1)c1ccc(O)c(F)c1 | 14.5 | 48.6 | 4.72 | 25.3 | 3.07 | > 84 | 19 | 47.8 | 24.6 | 67.5 | 11.6 | 52.7 | 0.353 | 12.2 | 11.4 | 31.5 | 11 | 39.7 | 12.5 | 28.5
3 | Cc1cc2cc(Cl)ccc2nc1C(=O)c1ccccc1 |  | > 100 |  | > 100 |  | > 100 |  |  |  | > 100 |  | > 100 |  | > 100 |  | > 100 |  | > 100 |  | > 100
4 | C/C(=N\Nc1ccc2ccccc2n1)c1ccccc1O |  | > 100 |  |  |  | > 100 |  | > 100 |  | > 100 |  | > 100 |  | > 100 |  | > 100 |  | > 100 |  | 37.2
5 | O=C(CCCCC(=O)N/N=C\c1ccccc1Cl)N/N=C\c1ccccc1Cl | 0.757 | 21 |  |  | 1.91 | > 100 | 3.15 | > 100 | 2.54 | > 100 | 0.654 | > 100 | 7.44 | > 100 | 12.5 | 33.9 | 15.4 | > 100 | 0.539 | 44.4
6 | COc1cc(C2c3cc4c(cc3[C@H](NC(=O)c3cccs3)C3COC(=O)[C@H]23)OCO4)cc(OC)c1OC (stereo partly drawn) |  | 0.865 |  | 13.2 |  | 18.7 |  | 10.8 |  | > 100 |  | 1.05 |  | 19.5 |  | > 100 |  |  |  | 
7 | Cc1cc(C)nc(NS(=O)(=O)c2ccc(NC(=O)c3cccc4c(Nc5ccc(S(=O)(=O)Nc6nc(C)cc(C)n6)cc5)c5ccccc5nc34)cc2)n1 |  | 38.6 |  |  |  | 49.8 |  | > 100 |  | 43.2 |  | 26 |  | 41.1 |  | 70.4 |  |  |  | 51.5
8 | C[As](C)Sc1ccnc(S[As](C)C)n1 | 7.03 | > 100 | 3.02 | 10.5 | 1.85 | 15.1 | 19.1 | > 58.6 | 5 | 27.1 | 2.13 | > 34.8 | 3.41 | 15.8 |  |  | 31.2 | > 100 | 27.2 | > 59.2
9 | CN(C)c1ccc(/C=C/C(=O)c2ccccc2)cc1Br |  | 33.6 |  | 37.5 |  | 51.1 |  | > 100 |  | 52.6 |  |  |  | 45.2 |  | 44.5 |  |  |  | 45.7
10 | Cc1cc(Cl)ccc1NC(=O)/C(Cl)=C(/Cl)C(=O)O |  | 38.3 |  | 39.3 |  | 36.1 |  | > 100 |  | 36.1 |  | 37.9 |  | 35 |  |  |  |  |  | > 100
11 | O=C1OC(c2ccccc2)C2CC3CC4(CCC3CN12)OCCO4 (stereo not drawn) |  | > 100 |  |  |  |  |  | > 100 |  | > 100 |  | > 100 |  | > 100 |  | > 100 |  | > 100 |  | > 100
12 | COC1OCC(OS(=O)(=O)c2ccc(C)cc2)C(OC(=O)c2ccccc2)C1OC(=O)c1ccccc1 (stereo not drawn) | 4.72 | > 100 | > 100 | > 100 | 8.83 | > 100 | 3.87 | > 100 |  |  | 3.45 | > 100 |  |  | 5.72 | > 100 | > 100 | > 100 | 3.63 | > 100
13 | CCc1ccc(CCC(=O)Nc2ncc(Cc3cc(Cl)ccc3Cl)s2)o1 | 1.61 | 11.7 | 2.99 | > 50 | 1.69 | 11.6 | 1.88 | > 50 |  |  | 0.988 | 9.1 | 1.93 | 36.9 | 2.66 | > 50 | 3.61 | > 50 | 1.25 | 7.17
14 | COC(=O)CSc1ccccc1 |  | > 100 |  | > 100 |  | > 100 |  | > 100 |  | > 100 |  | > 100 |  | > 100 |  | 46.4 |  |  |  | > 100
15 | CC1(C)Cc2cccc(OCC(O)CN3CCN(c4ccc(F)cc4)CC3)c2O1 (stereo not drawn) | 12.8 | 39.8 |  |  | 9.65 | 25 | 15.3 | > 50 | 6.34 | 16.9 | 7.34 | 15 | 18.9 | > 50 | 27 | > 50 | 17.1 | > 50 | 8.83 | 39.9
16 | [N-]=[N+]=Nc1ccccc1-[n+]1noc([O-])c1Br |  | > 100 |  |  |  | > 100 |  | > 100 |  | > 100 |  | > 100 |  | > 100 |  | > 100 |  | > 100 |  | > 100
17 | N#Cc1ccc(/C=N\N2C(=O)c3ccccc3C2=O)cc1 |  |  |  | > 100 |  | > 100 |  | > 100 |  | > 100 |  | > 100 |  | > 100 |  | > 100 |  | > 100 |  | > 100
